The results in this text go back to US9051290B2, “Biaryl phosphodiesterase inhibitors” (LEO PHARMA A/S, priority 2010, dated 2015).

The target of the experiment is Human recombinant PDE4 (Genbank accession no NM—006203) (Homo sapiens, UniProt Q08499). Kind of experiment: PDE4 assay (SPA, cleavage of cAMP). In kind it is biochemical. Particulars: 1 hour incubation, test compound up to 10 μM, cAMP 1×10^−5M, read-out: PDE4 IC50 range. The method, then: Human recombinant PDE4 (Genbank accession no NM_006203) was incubated for 1 hour with the test compound at concentrations up to 10 μM, with cAMP (1×10^−5M), and with a low amount (0.021 MBq) of radioactively labelled cAMP. At the end of the incubation, the cleavage of the substrate was evaluated by the binding of the AMP product to SPA beads, which generate chemoluminescence when bound to the radioactive tracer. The AMP product inhibited the binding of the radioactive tracer to the beads, and the luminescent signal was competed.
The results were calculated as the molar concentrations resulting in 50% inhibition of the substrate cleavage compared to controls samples, and are expressed as a range of IC50 (M).
The compounds of the present invention were tested in the PDE4 assay.

pIC50: −log10 of the molar value. A value given as a limit tells only on which side of the number the result lay.

Human recombinant PDE4 (Genbank accession no NM—006203), sequence (Q08499 1-673 isoform Q08499-2): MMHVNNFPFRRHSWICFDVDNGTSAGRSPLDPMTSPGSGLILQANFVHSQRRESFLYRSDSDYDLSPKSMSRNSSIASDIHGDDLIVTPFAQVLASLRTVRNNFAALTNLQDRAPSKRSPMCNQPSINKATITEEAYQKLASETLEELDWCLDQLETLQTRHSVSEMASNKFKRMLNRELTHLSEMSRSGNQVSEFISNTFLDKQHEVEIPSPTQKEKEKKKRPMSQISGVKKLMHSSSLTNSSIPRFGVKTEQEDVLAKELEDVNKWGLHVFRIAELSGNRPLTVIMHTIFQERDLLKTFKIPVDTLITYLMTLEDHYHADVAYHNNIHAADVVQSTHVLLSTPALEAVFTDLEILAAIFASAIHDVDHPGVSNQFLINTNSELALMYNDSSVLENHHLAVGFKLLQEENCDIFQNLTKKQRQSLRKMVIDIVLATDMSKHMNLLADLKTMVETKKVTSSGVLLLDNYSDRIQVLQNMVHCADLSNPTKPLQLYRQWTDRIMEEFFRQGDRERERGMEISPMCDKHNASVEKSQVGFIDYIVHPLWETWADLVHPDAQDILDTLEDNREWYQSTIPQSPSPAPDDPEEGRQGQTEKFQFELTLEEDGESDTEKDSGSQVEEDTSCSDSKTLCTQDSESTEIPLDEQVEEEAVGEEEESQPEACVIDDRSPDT

What is called pIC50 is the IC50 on a negative log10 scale, so that one unit is a factor of ten. Take `COc1ccc(-c2ccc(OC)c3c2CCC3=O)c(OCC(C)C)c1OC` [Compound 168, 4-(2-Isobutoxy-3,4-dimethoxy-phenyl)-7-methoxy-indan-1-one]: the pIC50 is no more than 6.30. The figure for `COc1ccc(-c2ccc3c(c2)CCC3=O)c(OCC(C)C)c1OC` [Compound 169, 5-(2-Isobutoxy-3,4-dimethoxy-phenyl)-indan-1-one] is greater than 7.00; for `COc1ccc(-c2ccc3c(c2)COC3=O)c(OCC(C)C)c1OC` [Compound 170, 5-(2-Isobutoxy-3,4-dimethoxy-phenyl)-3H-isobenzofuran-1-one] it is greater than 7.00; for `COc1ccc(-c2ccc3c(c2)C(C)N(C)C3=O)c(OCC(C)C)c1OC` (centres unmarked) [Compound 171, 5-(2-Isobutoxy-3,4-dimethoxy-phenyl)-2,3-dimethyl-2,3-dihydro-isoindol-1-one] it is no more than 6.30. To `COc1ccc(-c2ccc3c(c2)CN(C)C3=O)c(OCC(C)C)c1OC` [Compound 172, 5-(2-Isobutoxy-3,4-dimethoxy-phenyl)-2-methyl-2,3-dihydro-isoindol-1-one] belongs no more than 6.30; to `COc1ccc(-c2cccc3c2CNC3=O)c(OCC(C)C)c1OC` [Compound 173, 4-(2-Isobutoxy-3,4-dimethoxy-phenyl)-2,3-dihydro-isoindol-1-one], 6.30 to 7.00.

As to `COc1ccc(-c2ccc3c(c2)CNC3=O)c(OCC(C)C)c1OC` [Compound 174, 5-(2-Isobutoxy-3,4-dimethoxy-phenyl)-2,3-dihydro-isoindol-1-one], the pIC50 is greater than 7.00. In the case of `COc1ccc(-c2cccc3c2COC3=O)c(OCC(C)C)c1OC` [Compound 175, 4-(2-Isobutoxy-3,4-dimethoxy-phenyl)-3H-isobenzofuran-1-one], the pIC50 is greater than 7.00. To `COc1ccc(-c2ccc3c(c2)OCC3=O)c(OCC(C)C)c1OC` [Compound 176, 6-(2-Isobutoxy-3,4-dimethoxy-phenyl)-benzofuran-3-one] belongs 6.30 to 7.00. Take `COc1ccc(-c2cccc3c2CCC3=O)c(OCC2(CO)CC2)c1OC` [Compound 177, 4-[2-(1-Hydroxymethyl-cyclopropylmethoxy)-3,4-dimethoxy-phenyl]-indan-1-one]: the pIC50 is greater than 7.00. The figure for `COCC1(COc2c(-c3cccc4c3CCC4=O)ccc(OC)c2OC)CC1` [Compound 178, 4-[3,4-Dimethoxy-2-(1-methoxymethyl-cyclopropylmethoxy)-phenyl]-indan-1-one] is greater than 7.00; for `CCNC(=O)OCC1(COc2c(-c3cccc4c3CCC4=O)ccc(OC)c2OC)CC1` [Compound 179, Ethyl-carbamic acid 1-[2,3-dimethoxy-6-(1-oxo-indan-4-yl)-phenoxymethyl]-cyclopropylmethyl ester] it is greater than 7.00. Regarding `COc1ccc(-c2cccc3c2CCC3=O)c(OCC2(COC(=O)NC(C)C)CC2)c1OC` [Compound 180, Isopropyl-carbamic acid 1-[2,3-dimethoxy-6-(1-oxo-indan-4-yl)-phenoxymethyl]-cyclopropylmethyl ester], the pIC50 was greater than 7.00. The figure for `COc1ccc(-c2cccc3c2CCC3=O)c(OCC2(COC(=O)NCc3ccccc3)CC2)c1OC` [Compound 181, Benzyl-carbamic acid 1-[2,3-dimethoxy-6-(1-oxo-indan-4-yl)-phenoxymethyl]-cyclopropylmethyl ester] is greater than 7.00. To `COc1ccc(-c2cccc3c2CCC3=O)c(OCC2(CNC(=O)C(C)C)CC2)c1OC` [Compound 183] belongs greater than 7.00; to `CCCC(=O)NCC1(COc2c(-c3cccc4c3CCC4=O)ccc(OC)c2OC)CC1` [Compound 184, N-{1-[2,3-Dimethoxy-6-(1-oxo-indan-4-yl)-phenoxymethyl]-cyclopropylmethyl}-butyramide], greater than 7.00. To `COc1ccc(-c2cccc3c2CCC3=O)c(OCC2(CNC(C)=O)CC2)c1OC` [Compound 185, N-{1-[2,3-Dimethoxy-6-(1-oxo-indan-4-yl)-phenoxymethyl]-cyclopropylmethyl}-acetamide] belongs greater than 7.00. Regarding `CCOC(=O)NCC1(COc2c(-c3cccc4c3CCC4=O)ccc(OC)c2OC)CC1` [Compound 186, {1-[2,3-Dimethoxy-6-(1-oxo-indan-4-yl)-phenoxymethyl]-cyclopropylmethyl}-carbamic Acid Ethyl Ester], the pIC50 is greater than 7.00. The figure for `COc1ccc(-c2cccc3c2CCC3=O)c(OCC2(CNC(=O)OC(C)C)CC2)c1OC` [Compound 187, {1-[2,3-Dimethoxy-6-(1-oxo-indan-4-yl)-phenoxymethyl]-cyclopropylmethyl}-carbamic Acid Isopropyl Ester] is greater than 7.00. To `COCCOC(=O)NCC1(COc2c(-c3cccc4c3CCC4=O)ccc(OC)c2OC)CC1` [Compound 188, {1-[2,3-Dimethoxy-6-(1-oxo-indan-4-yl)-phenoxymethyl]-cyclopropylmethyl}-carbamic acid 2-methoxy-ethyl Ester] belongs greater than 7.00; to `CCNC(=O)OCC1(COc2c(-c3cccc4c3CCC4=O)ccc(OC)c2OC)COC1` [Compound 189, Ethyl-carbamic acid 3-[2,3-dimethoxy-6-(1-oxo-indan-4-yl)-phenoxymethyl]-oxetan-3-ylmethyl ester], greater than 7.00. The figure for `COCC1(COc2c(-c3cccc4c3CCC4=O)ccc(OC)c2OC)COC1` [Compound 190, 4-[3,4-Dimethoxy-2-(3-methoxymethyl-oxetan-3-ylmethoxy)-phenyl]-indan-1-one] is greater than 7.00. Take `COc1ccc(-c2cccc3c2CCC3=O)c(OCC2(CNC(C)=O)COC2)c1OC` [Compound 192, N-{3-[2,3-Dimethoxy-6-(1-oxo-indan-4-yl)-phenoxymethyl]-oxetan-3-ylmethyl}-acetamide]: the pIC50 was greater than 7.00. The figure for `COc1ccc(-c2cccc3c2CCC3=O)c(OCC2(CNC(=O)C(C)C)COC2)c1OC` [Compound 193, N-{3-[2,3-Dimethoxy-6-(1-oxo-indan-4-yl)-phenoxymethyl]-oxetan-3-ylmethyl}-isobutyramide] is greater than 7.00; for `CCCC(=O)NCC1(COc2c(-c3cccc4c3CCC4=O)ccc(OC)c2OC)COC1` [Compound 194, N-{3-[2,3-Dimethoxy-6-(1-oxo-indan-4-yl)-phenoxymethyl]-oxetan-3-ylmethyl}-butyramide] it is greater than 7.00; for `COCC(=O)NCC1(COc2c(-c3cccc4c3CCC4=O)ccc(OC)c2OC)COC1` [Compound 195, N-{3-[2,3-Dimethoxy-6-(1-oxo-indan-4-yl)-phenoxymethyl]-oxetan-3-ylmethyl}-2-methoxy-acetamide] it is greater than 7.00. On to `CCOC(=O)NCC1(COc2c(-c3cccc4c3CCC4=O)ccc(OC)c2OC)COC1` [Compound 196, {3-[2,3-Dimethoxy-6-(1-oxo-indan-4-yl)-phenoxymethyl]-oxetan-3-ylmethyl}-carbamic acid ethyl ester], for which the pIC50 was greater than 7.00. For `COc1ccc(-c2cccc3c2CCC3=O)c(OCC2(CNC(=O)OC(C)C)COC2)c1OC` [Compound 197, {3-[2,3-Dimethoxy-6-(1-oxo-indan-4-yl)-phenoxymethyl]-oxetan-3-ylmethyl}-carbamic acid isopropyl ester], the pIC50 is greater than 7.00.

In the case of `COCCOC(=O)NCC1(COc2c(-c3cccc4c3CCC4=O)ccc(OC)c2OC)COC1` [Compound 198, {3-[2,3-Dimethoxy-6-(1-oxo-indan-4-yl)-phenoxymethyl]-oxetan-3-ylmethyl}-carbamic acid 2-methoxy-ethyl ester], the pIC50 was greater than 7.00.
